Experimental data reported in ChEMBL document CHEMBL5291721, “A preclinical secondary pharmacology resource illuminates target-adverse drug reaction associations of marketed drugs” (Nat Commun, 2023).

Key:
[1] = biological target: Glutamate receptor ionotropic, NMDA 1 (Rattus norvegicus, UniProt P35439)
Adenosine receptor A1 = biological target: T1, Adenosine receptor A1 (Homo sapiens, UniProt P30542)
T1 sequence (P30542 whole entry): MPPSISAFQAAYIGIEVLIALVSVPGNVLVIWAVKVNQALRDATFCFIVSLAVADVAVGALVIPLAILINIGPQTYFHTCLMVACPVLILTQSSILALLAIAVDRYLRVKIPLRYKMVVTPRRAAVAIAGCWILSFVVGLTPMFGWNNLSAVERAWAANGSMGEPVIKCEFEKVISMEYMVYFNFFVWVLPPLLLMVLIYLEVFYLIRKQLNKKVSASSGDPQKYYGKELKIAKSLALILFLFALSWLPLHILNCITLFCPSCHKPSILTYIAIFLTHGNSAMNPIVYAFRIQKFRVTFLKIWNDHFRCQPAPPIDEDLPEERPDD

Thromboxane A2 receptor = biological target: T2, Thromboxane A2 receptor (Homo sapiens, UniProt P21731)
T2 sequence (P21731 whole entry): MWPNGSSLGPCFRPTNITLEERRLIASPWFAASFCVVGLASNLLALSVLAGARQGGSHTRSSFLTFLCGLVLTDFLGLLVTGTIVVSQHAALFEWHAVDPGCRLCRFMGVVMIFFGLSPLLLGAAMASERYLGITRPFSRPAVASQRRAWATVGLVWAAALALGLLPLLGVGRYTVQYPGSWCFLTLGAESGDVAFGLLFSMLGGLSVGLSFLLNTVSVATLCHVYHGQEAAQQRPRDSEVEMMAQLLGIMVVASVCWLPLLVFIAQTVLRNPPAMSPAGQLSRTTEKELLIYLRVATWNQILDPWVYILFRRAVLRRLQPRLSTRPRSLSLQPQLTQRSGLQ

[2] = biological target: T3, Alpha-1A adrenergic receptor (Homo sapiens, UniProt P35348); format: functional, cell-based
T3 sequence (P35348 whole entry): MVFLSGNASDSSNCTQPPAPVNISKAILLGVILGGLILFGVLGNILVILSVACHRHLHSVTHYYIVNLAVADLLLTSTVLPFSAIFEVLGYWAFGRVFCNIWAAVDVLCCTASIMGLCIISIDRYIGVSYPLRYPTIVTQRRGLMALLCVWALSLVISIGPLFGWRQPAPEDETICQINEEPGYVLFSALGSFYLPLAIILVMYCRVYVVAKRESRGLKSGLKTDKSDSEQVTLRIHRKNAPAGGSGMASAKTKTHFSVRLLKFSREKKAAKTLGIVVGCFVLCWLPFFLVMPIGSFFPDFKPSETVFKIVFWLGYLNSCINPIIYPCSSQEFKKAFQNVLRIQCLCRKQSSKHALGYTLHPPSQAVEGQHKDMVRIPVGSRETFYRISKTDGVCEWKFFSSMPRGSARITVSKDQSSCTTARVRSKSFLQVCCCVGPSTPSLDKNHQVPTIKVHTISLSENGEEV

[3] = biological target: T4, Alpha-2B adrenergic receptor (Homo sapiens, UniProt P18089)
T4 sequence (P18089 whole entry): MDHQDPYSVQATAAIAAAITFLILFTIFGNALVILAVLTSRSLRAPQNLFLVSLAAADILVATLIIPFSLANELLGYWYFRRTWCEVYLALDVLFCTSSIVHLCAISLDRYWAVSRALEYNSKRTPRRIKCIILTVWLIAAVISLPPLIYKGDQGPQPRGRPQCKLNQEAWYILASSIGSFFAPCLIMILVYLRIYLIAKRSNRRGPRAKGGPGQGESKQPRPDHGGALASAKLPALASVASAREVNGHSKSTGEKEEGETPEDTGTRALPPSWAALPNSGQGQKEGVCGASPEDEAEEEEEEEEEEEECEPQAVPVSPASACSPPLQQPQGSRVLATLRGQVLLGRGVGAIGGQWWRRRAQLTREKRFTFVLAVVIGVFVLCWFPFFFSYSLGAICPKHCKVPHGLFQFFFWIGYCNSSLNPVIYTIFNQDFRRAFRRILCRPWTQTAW

[4] = biological target: Voltage-gated inwardly rectifying potassium channel KCNH2 (Homo sapiens, UniProt Q12809); format: functional; conditions: read-out: AC50
Motilin receptor = Motilin receptor (Homo sapiens, UniProt O43193)
[5] = biological target: T5, 5-hydroxytryptamine receptor 3A (Homo sapiens, UniProt P46098); format: functional
T5 sequence (P46098 whole entry): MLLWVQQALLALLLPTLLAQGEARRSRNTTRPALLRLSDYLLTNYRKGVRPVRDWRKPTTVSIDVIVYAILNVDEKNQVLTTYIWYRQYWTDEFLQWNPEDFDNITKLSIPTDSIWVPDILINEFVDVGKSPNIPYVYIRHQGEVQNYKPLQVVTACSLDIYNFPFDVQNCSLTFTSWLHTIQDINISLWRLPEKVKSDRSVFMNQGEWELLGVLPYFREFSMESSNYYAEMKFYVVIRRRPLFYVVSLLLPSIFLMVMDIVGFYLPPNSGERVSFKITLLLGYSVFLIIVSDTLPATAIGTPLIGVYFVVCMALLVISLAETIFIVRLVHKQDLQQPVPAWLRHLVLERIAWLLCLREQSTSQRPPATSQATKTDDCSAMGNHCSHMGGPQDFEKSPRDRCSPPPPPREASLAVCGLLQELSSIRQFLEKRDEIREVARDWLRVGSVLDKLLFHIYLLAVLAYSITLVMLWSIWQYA

[6] = biological target: Sodium-dependent noradrenaline transporter (Homo sapiens, UniProt P23975)
Cannabinoid receptor 1 = Cannabinoid receptor 1 (Homo sapiens, UniProt P21554); format: functional, cell-based
[7] = biological target: cGMP-inhibited 3',5'-cyclic phosphodiesterase 3A (Homo sapiens, UniProt Q14432); format: functional
[8] = biological target: T6, Alpha-2A adrenergic receptor (Homo sapiens, UniProt P08913); format: functional, cell-based
T6 sequence (P08913 whole entry): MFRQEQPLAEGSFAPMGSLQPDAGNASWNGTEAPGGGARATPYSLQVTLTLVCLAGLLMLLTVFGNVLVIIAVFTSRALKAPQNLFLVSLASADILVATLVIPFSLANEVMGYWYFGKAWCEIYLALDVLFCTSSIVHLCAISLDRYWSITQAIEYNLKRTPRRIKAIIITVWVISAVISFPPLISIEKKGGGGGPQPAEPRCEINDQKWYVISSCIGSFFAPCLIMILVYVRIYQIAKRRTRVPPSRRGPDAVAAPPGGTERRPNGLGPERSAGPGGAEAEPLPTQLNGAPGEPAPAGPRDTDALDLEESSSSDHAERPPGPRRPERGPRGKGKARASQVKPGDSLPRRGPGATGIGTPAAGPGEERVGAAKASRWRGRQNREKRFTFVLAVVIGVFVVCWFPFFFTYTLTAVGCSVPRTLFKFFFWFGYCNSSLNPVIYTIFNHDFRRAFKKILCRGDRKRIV
Note: assay procedure not described here.

Chain of cGMP-inhibited 3',5'-cyclic phosphodiesterase 3A (Q14432 whole entry): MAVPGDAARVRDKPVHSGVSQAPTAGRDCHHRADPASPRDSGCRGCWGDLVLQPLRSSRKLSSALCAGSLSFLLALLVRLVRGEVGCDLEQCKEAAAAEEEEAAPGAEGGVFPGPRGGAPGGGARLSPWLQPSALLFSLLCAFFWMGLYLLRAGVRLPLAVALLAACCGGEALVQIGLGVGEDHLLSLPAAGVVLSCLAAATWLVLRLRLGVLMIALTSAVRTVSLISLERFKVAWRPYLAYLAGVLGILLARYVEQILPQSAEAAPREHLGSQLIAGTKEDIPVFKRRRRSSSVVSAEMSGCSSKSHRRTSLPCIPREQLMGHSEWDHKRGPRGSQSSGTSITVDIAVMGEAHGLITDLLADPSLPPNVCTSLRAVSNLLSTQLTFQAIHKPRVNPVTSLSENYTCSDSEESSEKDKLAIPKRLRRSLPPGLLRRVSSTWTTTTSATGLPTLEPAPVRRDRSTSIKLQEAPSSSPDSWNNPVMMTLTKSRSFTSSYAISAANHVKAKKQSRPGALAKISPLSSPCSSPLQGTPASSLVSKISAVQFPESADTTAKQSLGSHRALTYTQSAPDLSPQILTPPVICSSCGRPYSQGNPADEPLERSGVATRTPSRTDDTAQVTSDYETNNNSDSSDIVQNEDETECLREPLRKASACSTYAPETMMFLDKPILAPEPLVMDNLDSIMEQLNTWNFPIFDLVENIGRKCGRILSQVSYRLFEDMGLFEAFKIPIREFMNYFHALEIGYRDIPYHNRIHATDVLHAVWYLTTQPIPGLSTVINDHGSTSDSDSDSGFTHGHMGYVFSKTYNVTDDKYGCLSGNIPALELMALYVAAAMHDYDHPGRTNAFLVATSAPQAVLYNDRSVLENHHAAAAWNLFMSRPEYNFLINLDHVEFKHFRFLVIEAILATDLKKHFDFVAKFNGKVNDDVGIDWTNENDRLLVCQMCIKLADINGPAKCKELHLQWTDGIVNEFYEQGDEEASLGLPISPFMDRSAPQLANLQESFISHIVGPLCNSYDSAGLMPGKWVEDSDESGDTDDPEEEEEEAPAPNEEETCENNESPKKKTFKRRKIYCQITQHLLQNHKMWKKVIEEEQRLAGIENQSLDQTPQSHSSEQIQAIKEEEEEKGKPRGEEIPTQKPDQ
Chain of Motilin receptor (O43193 whole entry): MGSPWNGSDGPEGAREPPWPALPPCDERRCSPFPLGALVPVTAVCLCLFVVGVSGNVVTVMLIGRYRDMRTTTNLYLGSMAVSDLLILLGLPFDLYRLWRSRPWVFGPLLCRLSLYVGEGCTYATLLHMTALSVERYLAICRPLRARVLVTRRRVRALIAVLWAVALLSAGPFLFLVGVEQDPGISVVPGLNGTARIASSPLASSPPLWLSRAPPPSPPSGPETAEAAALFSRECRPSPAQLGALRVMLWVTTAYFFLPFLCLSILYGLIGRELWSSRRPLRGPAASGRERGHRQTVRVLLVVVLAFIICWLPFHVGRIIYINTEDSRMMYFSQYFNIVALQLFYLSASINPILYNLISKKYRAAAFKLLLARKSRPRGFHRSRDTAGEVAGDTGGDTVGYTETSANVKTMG
Chain of Sodium-dependent noradrenaline transporter (P23975 whole entry): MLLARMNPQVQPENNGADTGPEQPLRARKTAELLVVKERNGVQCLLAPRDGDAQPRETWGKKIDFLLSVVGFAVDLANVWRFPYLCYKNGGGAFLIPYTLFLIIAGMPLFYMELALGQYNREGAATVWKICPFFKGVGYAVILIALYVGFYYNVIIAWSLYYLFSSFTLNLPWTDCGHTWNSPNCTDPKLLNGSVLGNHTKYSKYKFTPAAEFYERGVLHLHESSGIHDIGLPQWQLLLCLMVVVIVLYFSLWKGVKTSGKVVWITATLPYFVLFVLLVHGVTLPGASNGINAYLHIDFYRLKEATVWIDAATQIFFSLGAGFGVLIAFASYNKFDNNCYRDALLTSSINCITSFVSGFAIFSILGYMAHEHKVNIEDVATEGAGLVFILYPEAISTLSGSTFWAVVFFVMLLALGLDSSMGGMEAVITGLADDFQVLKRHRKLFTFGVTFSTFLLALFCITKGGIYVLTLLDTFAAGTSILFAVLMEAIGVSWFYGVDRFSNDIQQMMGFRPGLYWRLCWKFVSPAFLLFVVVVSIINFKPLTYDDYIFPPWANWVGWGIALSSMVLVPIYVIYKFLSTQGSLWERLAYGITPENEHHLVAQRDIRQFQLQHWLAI
Chain of Cannabinoid receptor 1 (P21554 whole entry): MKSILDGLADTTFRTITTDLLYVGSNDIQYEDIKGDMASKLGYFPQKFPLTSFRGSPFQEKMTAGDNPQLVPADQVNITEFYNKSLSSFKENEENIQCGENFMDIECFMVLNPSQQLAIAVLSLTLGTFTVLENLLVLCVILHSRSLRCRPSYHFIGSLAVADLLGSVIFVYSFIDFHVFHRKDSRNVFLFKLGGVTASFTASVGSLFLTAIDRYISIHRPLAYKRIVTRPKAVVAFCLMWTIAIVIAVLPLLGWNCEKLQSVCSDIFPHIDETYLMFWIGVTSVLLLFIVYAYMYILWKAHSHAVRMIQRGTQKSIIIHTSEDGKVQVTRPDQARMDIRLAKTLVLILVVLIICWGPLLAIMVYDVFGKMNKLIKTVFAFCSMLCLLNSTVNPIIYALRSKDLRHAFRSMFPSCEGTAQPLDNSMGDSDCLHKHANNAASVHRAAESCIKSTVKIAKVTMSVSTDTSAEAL
Chain of Voltage-gated inwardly rectifying potassium channel KCNH2 (Q12809 whole entry): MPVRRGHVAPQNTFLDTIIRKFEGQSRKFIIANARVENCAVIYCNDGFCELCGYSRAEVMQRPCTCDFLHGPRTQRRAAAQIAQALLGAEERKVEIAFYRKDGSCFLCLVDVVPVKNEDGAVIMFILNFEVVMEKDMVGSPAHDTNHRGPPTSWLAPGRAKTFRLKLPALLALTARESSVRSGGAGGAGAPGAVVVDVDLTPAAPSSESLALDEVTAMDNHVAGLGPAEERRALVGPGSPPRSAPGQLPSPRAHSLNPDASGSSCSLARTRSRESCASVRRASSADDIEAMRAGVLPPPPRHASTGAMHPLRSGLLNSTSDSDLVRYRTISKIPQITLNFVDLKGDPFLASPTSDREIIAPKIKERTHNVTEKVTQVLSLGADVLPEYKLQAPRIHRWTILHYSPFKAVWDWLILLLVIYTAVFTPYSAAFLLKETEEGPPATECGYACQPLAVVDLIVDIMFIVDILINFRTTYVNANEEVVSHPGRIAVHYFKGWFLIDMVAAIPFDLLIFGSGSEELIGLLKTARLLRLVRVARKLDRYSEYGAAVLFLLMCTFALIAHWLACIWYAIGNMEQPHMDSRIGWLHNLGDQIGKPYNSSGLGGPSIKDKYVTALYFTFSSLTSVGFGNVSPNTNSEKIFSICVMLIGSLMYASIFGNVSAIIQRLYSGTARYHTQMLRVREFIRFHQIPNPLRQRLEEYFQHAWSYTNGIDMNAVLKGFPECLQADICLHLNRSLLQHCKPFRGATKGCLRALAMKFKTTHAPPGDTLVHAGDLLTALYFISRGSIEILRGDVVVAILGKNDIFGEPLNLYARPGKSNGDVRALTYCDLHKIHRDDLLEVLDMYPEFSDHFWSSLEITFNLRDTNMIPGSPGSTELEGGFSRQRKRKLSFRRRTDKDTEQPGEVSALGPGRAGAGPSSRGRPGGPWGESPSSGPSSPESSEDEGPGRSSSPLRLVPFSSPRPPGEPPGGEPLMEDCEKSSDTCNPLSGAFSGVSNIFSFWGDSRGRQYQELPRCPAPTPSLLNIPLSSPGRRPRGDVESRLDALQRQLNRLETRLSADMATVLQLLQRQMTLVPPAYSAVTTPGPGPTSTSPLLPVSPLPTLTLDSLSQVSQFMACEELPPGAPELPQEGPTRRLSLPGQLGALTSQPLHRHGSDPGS

Compound | AC50 [1] [µM] | AC50 (Adenosine receptor A1) [µM] | AC50 (Thromboxane A2 receptor) [µM] | AC50 [2] [µM] | AC50 [3] [µM] | AC50 [4] [µM] | AC50 (Motilin receptor) [µM] | AC50 [5] [µM] | AC50 [6] [µM] | AC50 (Cannabinoid receptor 1) [µM] | AC50 [7] [µM] | AC50 [8] [µM]
COc1ccc(C(Cl)=C(c2ccc(OC)cc2)c2ccc(OC)cc2)cc1 [CHLOROTRIANISENE] | > 30 | > 30 | > 10 | 21 | > 30 | > 30 | > 30 | > 30 | > 30 | > 30 | > 30 | > 30
CC(C(=O)O)c1ccc(C(=O)c2ccccc2)s1 (stereo not drawn) [TIAPROFENIC ACID] | > 10 | > 10 | > 10 | > 30 | > 10 | 9.26 | > 10 | > 30 | > 10 | > 30 | > 30 | > 10
C=C(c1ccccc1OCc1cccc(Cl)c1)n1ccnc1 [CROCONAZOLE] | > 10 | > 30 | 16.2 | 21 | > 10 | 4.97 | > 10 | > 30 | 1.8 | > 30 | > 30 | > 10
CCCCOC(=O)C(=O)Nc1cccc(-c2nnn[nH]2)c1 [TAZANOLAST] | > 30 | > 30 | > 30 | > 30 | > 30 | > 30 | > 30 | > 30 | > 30 | > 30 | > 30 | > 30
